Experiment [1] addresses T1, Tyrosine-protein phosphatase non-receptor type 1 (Homo sapiens) (UniProt P18031).
T1 sequence (whole entry): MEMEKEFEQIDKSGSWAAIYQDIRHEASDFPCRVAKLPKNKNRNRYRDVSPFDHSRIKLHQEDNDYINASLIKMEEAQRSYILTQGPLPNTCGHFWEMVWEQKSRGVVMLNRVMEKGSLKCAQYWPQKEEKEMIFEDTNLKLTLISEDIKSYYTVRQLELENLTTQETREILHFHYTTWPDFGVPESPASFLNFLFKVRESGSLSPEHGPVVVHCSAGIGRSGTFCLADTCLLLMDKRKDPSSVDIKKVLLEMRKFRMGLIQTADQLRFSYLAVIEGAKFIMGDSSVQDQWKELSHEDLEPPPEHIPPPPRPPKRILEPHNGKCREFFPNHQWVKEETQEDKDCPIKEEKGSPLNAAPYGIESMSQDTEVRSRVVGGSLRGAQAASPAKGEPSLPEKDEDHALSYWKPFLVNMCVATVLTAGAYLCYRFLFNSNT
Briefly: The rate constant for the inactivation of mammalian Protein-tyrosine phosphatase 1 (PTP1 ) was evaluated.

Experiment [2] has as its target T1, Tyrosine-protein phosphatase non-receptor type 1 (Homo sapiens). The experiment is described as follows: Apparent pseudo-first-order rate constant of inactivation of Protein Tyrosine Phosphatase (PTP) was determined; value given as 1-25.
Experiment [3] has the same target. The experiment is described as follows: Apparent pseudo-first-order rate constant of inactivation of Protein Tyrosine Phosphatase (PTP) was determined; value given as 0.5-2.8.

SMILES strings stand for the structures.

Take `CN(N=O)c1ccccc1`: the Rate constant in experiment [1] is 0.0167 M⁻¹ s⁻¹; in experiment [2], 1 mM.
Turning to `CN(N=O)c1cc(O)ccc1O`, the Rate constant amounted to 0.5 mM in experiment [3] and 1.08 M⁻¹ s⁻¹ in experiment [1].

These data come from ChEMBL document CHEMBL1128883, “Synthesis and bioassay of a protein tyrosine phosphatase inhibitor, dephostatin” (Bioorg Med Chem Lett, 1995).
